The test concerns the target human GPBAR1 receptor (Homo sapiens (Human), UniProt Q8TDU6). In words: functional cAMP assay in CHO-dhfr(minus) cells expressing human GPBAR1 receptors. The format is cell-based. The note with it: CHO-dhfr(minus) cells expressing human GPBAR1, 30 min at 30° C. An outline of the steps: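 CHO-dhfr- cells were transfected with human GPBAR1, and a clone was chosen by cAMP response to lithocholic acid. EC50 values come from the cAMP read-out; specificity was checked in non-transfected CHO cells.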
(Changes in cAMP serve as a functional read-out for many G protein-coupled receptors.)
Sequence of human GPBAR1 receptor (Q8TDU6 whole entry): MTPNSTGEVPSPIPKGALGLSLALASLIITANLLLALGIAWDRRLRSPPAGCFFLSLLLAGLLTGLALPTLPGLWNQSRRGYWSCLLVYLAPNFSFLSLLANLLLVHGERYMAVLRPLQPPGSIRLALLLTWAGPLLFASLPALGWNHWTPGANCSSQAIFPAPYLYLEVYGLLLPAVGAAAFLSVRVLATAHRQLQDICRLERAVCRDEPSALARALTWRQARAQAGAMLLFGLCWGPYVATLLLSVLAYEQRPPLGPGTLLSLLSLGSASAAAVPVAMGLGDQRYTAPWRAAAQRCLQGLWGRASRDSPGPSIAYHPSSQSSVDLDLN
In the case of `COc1cc(F)ccc1-c1ccncc1N(C)C(=O)c1cc(C(F)(F)F)cc(S(=O)(=O)CCCCC(N)=O)c1` [Example 254, 3-(4-Carbamoyl-butane-1-sulfonyl)-N-[4-(4-fluoro-2-methoxy-phenyl)-pyridin-3-yl]-N-methyl-5-trifluoromethyl-benzamide], the 50% effective concentration (EC50) came to 54 nM. `COc1cc(F)c(F)cc1-c1ccncc1N(CC(F)(F)F)C(=O)c1cc(C(F)(F)F)cc(S(C)(=O)=O)c1` [Example 139, N-[4-(4,5-Difluoro-2-methoxy-phenyl)-pyridin-3-yl]-3-methanesulfonyl-N-(2,2,2-trifluoro-ethyl)-5-trifluoromethyl-benzamide] registered an EC50 of 606 nM. Next, `COc1ncccc1-c1ccncc1N(CC(F)(F)F)C(=O)c1cc(C(F)(F)F)nc(C(F)(F)F)c1` [Example 145, N-(2-Methoxy-[3,4′]bipyridinyl-3′-yl)-N-(2,2,2-trifluoro-ethyl)-2,6-bis-trifluoromethyl-isonicotinamide]: 30 nM; `CCC(=O)CN(C(=O)c1cc(C(F)(F)F)nc(C(F)(F)F)c1)c1cnccc1-c1ccc(F)cc1OC` [Example 203, N-[4-(4-Fluoro-2-methoxy-phenyl)-pyridin-3-yl]-N-(2-oxo-butyl)-2,6-bis-trifluoromethyl-isonicotinamide]: 54 nM.

As for `COc1cc(F)ccc1-c1ccncc1N(C)C(=O)c1cc(C(F)(F)F)cc(S(=O)(=O)N2CCOCC2)c1` [Example 256, N-[4-(4-Fluoro-2-methoxy-phenyl)-pyridin-3-yl]-N-methyl-3-(morpholine-4-sulfonyl)-5-trifluoromethyl-benzamide], a half-maximal response (EC50) required 20 nM. The compound `COc1cc(F)ccc1-c1ccncc1N(C)C(=O)c1cc(C(F)(F)F)cc(S(=O)(=O)CCN2CCC2)c1` [Example 265, 3-(2-Azetidin-1-yl-ethanesulfonyl)-N-[4-(4-fluoro-2-methoxy-phenyl)-pyridin-3-yl]-N-methyl-5-trifluoromethyl-benzamide] showed an EC50 of 121 nM.

Regarding `Cc1cc(-c2ccccc2OC2COC2)c(N(C)C(=O)c2cc(C(F)(F)F)cc(S(C)(=O)=O)c2)cn1` [Example 318, 3-Methanesulfonyl-N-methyl-N-{6-methyl-4-[2-(oxetan-3-yloxy)-phenyl]-pyridin-3-yl}-5-trifluoromethyl-benzamide], it took 1110 nM to reach a half-maximal effect (EC50). `COc1cc(F)ccc1-c1ccncc1N(CC(F)(F)F)C(=O)c1cc(C(F)(F)F)cc(S(=O)(=O)N(C)C)c1` [Example 133, 3-Dimethylsulfamoyl-N-[4-(4-fluoro-2-methoxy-phenyl)-pyridin-3-yl]-N-(2,2,2-trifluoro-ethyl)-5-trifluoromethyl-benzamide] had an EC50 of 39 nM. Take `CN(C(=O)c1cc(O)cc(C(F)(F)F)c1)c1cnccc1-c1ccccc1Cl` [Example 79, N-[4-(2-Chloro-phenyl)-pyridin-3-yl]-3-hydroxy-N-methyl-5-trifluoromethyl-benzamide]: the EC50 was 1380 nM. Next, `CNc1cc(-c2ccccc2C)c(N(C)C(=O)c2cc(C(F)(F)F)cc(C(F)(F)F)c2)cn1` [Example 15, N-Methyl-N-(6-methylamino-4-o-tolyl-pyridin-3-yl)-3,5-bis-trifluoromethyl-benzamide]: 323 nM.

For `COc1cc(F)ccc1-c1ccncc1N(C)C(=O)c1cc(Cl)cc(S(C)(=O)=O)c1` [Example 257, 3-Chloro-N-[4-(4-fluoro-2-methoxy-phenyl)-pyridin-3-yl]-5-methanesulfonyl-N-methyl-benzamide], the EC50 was 79 nM.

Compound `COc1ccccc1-c1ccncc1N(C)C(=O)c1cc(C(F)(F)F)cc(C(F)(F)F)c1` [Example 29, N-[4-(2-Methoxy-phenyl)-pyridin-3-yl]-N-methyl-3,5-bis-trifluoromethyl-benzamide] displayed an EC50 of 11 nM. To `Cc1ccccc1-c1ccncc1N(C)C(=O)c1cc(F)cc(Cl)c1` [Example 103, 3-Chloro-5-fluoro-N-methyl-N-(4-o-tolyl-pyridin-3-yl)-benzamide] belongs 329 nM.

Usually EC50 stands for the midpoint of the concentration-response curve. High values mean weaker potency, low ones greater potency.

The values are drawn from patent publication US10385022B2, “3-amino-pyridines as GPBAR1 agonists” (HOFFMANN-LA ROCHE INC., priority 2011, dated 2019).
